pIC50: −log10 of the molar value.
Target: Metabotropic glutamate receptor 1 (Homo sapiens, UniProt Q13255)
Assay: Negative allosteric modulation of human mGluR1 expressed in HEK293A cells assessed as inhibition of glutamate-induced calcium mobilization

Chain of Metabotropic glutamate receptor 1 (Q13255 whole entry): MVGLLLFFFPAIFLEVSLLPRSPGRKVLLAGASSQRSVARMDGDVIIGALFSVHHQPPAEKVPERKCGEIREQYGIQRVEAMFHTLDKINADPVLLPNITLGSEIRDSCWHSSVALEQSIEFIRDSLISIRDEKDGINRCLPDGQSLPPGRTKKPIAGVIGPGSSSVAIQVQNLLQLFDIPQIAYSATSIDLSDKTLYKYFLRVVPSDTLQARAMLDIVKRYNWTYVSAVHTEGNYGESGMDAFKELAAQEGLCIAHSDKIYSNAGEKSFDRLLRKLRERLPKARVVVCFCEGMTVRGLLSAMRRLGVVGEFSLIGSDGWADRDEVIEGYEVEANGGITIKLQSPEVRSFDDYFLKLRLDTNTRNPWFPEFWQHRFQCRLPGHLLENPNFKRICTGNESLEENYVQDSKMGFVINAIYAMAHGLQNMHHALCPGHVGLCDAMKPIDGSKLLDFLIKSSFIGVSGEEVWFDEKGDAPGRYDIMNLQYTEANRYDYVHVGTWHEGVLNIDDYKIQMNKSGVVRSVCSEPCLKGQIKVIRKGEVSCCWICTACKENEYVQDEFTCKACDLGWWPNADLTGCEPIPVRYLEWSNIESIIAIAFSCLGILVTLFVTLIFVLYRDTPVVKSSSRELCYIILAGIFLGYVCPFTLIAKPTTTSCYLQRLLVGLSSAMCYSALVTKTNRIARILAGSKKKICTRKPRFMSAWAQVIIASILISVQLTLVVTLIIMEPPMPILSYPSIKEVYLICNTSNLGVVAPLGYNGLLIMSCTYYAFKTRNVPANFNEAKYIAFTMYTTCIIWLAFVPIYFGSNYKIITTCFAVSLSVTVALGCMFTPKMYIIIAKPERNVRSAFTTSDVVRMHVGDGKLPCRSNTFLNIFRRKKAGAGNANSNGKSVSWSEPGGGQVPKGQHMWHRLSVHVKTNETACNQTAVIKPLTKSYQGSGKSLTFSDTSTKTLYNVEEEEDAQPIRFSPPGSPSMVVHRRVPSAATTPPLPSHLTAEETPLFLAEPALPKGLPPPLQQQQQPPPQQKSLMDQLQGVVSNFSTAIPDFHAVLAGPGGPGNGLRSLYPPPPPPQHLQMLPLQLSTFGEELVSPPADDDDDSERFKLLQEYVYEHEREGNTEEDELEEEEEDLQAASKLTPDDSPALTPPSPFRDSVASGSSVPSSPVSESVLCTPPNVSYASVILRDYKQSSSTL

| Compound | pIC50 |
| --- | --- |
| C[C@@H]1CN(C(=O)C23CC4CC(CC(C4)C2)C3)CCN1c1ccncc1 | < 4.50 |
| C[C@@H]1CN(c2ccccn2)CCN1C(=O)C1CC1 | < 4.50 |
| C[C@@H]1CN(c2ccccn2)CCN1C(=O)C(C)(C)C | < 4.50 |
| C[C@@H]1CN(C(=O)C23C4C5C6C4C2C6C53)CCN1c1ccccn1 (stereo partly drawn) | < 4.50 |
| C[C@@H]1CN(C(=O)C(C)(C)C)CCN1c1ccccn1 | < 4.50 |
| C[C@@H]1CN(C(=O)C2CC2)CCN1c1ccccn1 | < 4.50 |
| C[C@@H]1CN(C(=O)C2CCCCC2)CCN1c1ccccn1 | < 4.50 |
| C[C@@H]1CN(C(=O)[C@H]2CC[C@H](C)CC2)CCN1c1ccccn1 | < 4.50 |

From BindingDB's records for doi:10.1016/j.bmcl.2013.05.020 (Vanderbilt University Medical Center, 2013)
